Measurements as given in patent US6335038B1, “Composition for the prevention and/or treatment of osteoporosis and alterations due to menopause syndrome” (Sigma-Tau Healthscience S.p.A., priority 1998, dated 2002).

Key:
serum osteocalcin = assay: Evaluation of changes in serum osteocalcin concentration; format: in vivo, mice; conditions: for Osteocalcin, serum concentration: mice aged at least 7 months, daily with diet; for effect on serum osteocalcin concentrations (in words): mice, versus control animals
Procedure: There is a close correlation between changes in plasma levels of osteocalcin and bone tissue osteoblast activity, and a reduction in osteocalcin plasma levels is an indicator of […] osteoblast activity which appears to underlie osteoporosis in elderly subjects or in the postmenopausal period in women. These tests were performed on a batch of mice aged at least 7 months, divided into various groups of 10 mice each.
The treatment was administered daily for thirty days or sixty days consecutively.

[1] = test system: prostacyclin synthesis in rat peritoneal macrophages; assay: Prostacyclin synthesis tests (PGI2 release by peritoneal macrophages from treated rats); format: in vivo; conditions: for effect on PGI2 synthesis in macrophages (in words): rats treated seven days, versus controls; for Macrophage PGI2 release values compared with controls: rats treated with diet for seven days (carnitine mixture 400 mg/kg, propionyl L-carnitine 400 mg/kg, soy extract 8 g/kg, genistein 40 mg/kg), carrageenin i.p. day 1, controls 0.25 ± 0.03
Procedure: The method used in these tests was the one described by G. R. Elliot in Brit. J. Nutrition, 64, 497, 1990, measuring the release of prostaglandins by peritoneal macrophages isolated from a batch of rats that were administered either the carnitine mixture, or the soy extract, or propionyl L-carnitine, or genistein, or various combinations of these products with their diet for seven days consecutively. The doses given were 400 mg/kg of carnitine mixture, or 400 mg/kg of propionyl L-carnitine, or 8 g/kg of soy extract, or 40 mg/kg of genistein, or the same doses of the various products combined. On day 1 of treatment, all the animals were treated intraperitoneally with 2 cm^3 of solution containing 2 mg of carrageenin. After the last day of treatment, peritoneal macrophages were isolated from the controls and treated rats so as to obtain a […] cell suspension.
One cm^3 of the macrophage preparation thus prepared was incubated for a period of two hours in order to evaluate the basal release or release after 30 minutes after being placed in contact with an ionophore such as […]. The cells were centrifuged and the supernatant analysed for its PGI2 content according to the radioimmunological assay method described by Zijstra et al. (Zijstra, F. J., Vincent, J. E., J. Chromatography, 311, 39, 1984).

[2] = test system: MC3T3 osteoblast-like cells; assay: Osteoblastic cell growth tests; format: cell-based, mouse; conditions: 72-hour incubation; 0.05 mM carnitine, 0.005 mM isoflavones or genistein; versus controls
Procedure: In view of the important role played by osteoblasts in regulating growth and in bone remodelling, a series of tests was conducted to evaluate whether the presence of carnitines or isoflavonoids and genistein could influence the growth of osteoblastic cells in vitro.

[3] = Toxicological tests, single-dose administration, rats; conditions: single dose: carnitine mixture 600 mg/kg, propionyl L-carnitine 600 mg/kg, soy extract (5% isoflavones) 5 g/kg, genistein 15 mg/kg
[4] = Toxicological tests, single-dose administration, mice; conditions: single dose: carnitine mixture 600 mg/kg, propionyl L-carnitine 600 mg/kg, soy extract (5% isoflavones) 5 g/kg, genistein 15 mg/kg
[5] = duration of treatment 30 days, controls 120.4 ± 8.6
[6] = duration of treatment 60 days, controls 90.5 ± 7.9

SMILES | Osteocalcin, serum concentration (serum osteocalcin; [5]) [ng/mL] | Osteocalcin, serum concentration (serum osteocalcin; [6]) [ng/mL] | effect on serum osteocalcin concentrations (in words) (serum osteocalcin) | effect on PGI2 synthesis in macrophages (in words) [1] | Macrophage PGI2 release values compared with controls [1] [ng/2 × 10^−6 cells] | effect on growth of osteoblastic cells (in words) [2] | mortality or evident signs of toxicity after single dose [3] | mortality or evident signs of toxicity after single dose [4]
O=c1c(-c2ccc(O)cc2)coc2cc(O)cc(O)c12 [Genistein, 4′,5,7-trihydroxyisoflavone] | 135.9 ± 10.2 | 100.1 ± 10.2 | capable of increasing the serum osteocalcin concentrations | only modest | 0.39 ± 0.27 | neither the isoflavones nor genistein appear to influence the normal growth rate of the cells | without any mortality or evident signs of toxicity | without any mortality or evident signs of toxicity
CCC(=O)O[C@H](CC(=O)[O-])C[N+](C)(C)C [Propionyl L-carnitine, propionyl L-carnitine] | 130.7 ± 10.1 | 98.5 ± 8.1 | capable of increasing the serum osteocalcin concentrations | increase in PGI2 synthesis | 3.0 ± 0.22 | modest effect on the growth of cells | without any mortality or evident signs of toxicity | without any mortality or evident signs of toxicity
